Results published in patent US20240117431A1, “STEM-CELL BASED BIOMARKER DISCOVERY” (THE REGENTS OF THE UNIVERSITY OF CALIFORNIA, priority 2020, published 2024).

Target: T1, Methionine-tRNA Synthetase L272G (MethL272G) iPSCs (Homo sapiens, UniProt P56192, L272G)
T1 construct: Using CRISPR gene editing, this locus was successfully modified in a human iPSC line; endogenous in cells; host or cells: human iPSC line ADRC 76, CRISPR-edited
T1 sequence (P56192 1-900 L272G): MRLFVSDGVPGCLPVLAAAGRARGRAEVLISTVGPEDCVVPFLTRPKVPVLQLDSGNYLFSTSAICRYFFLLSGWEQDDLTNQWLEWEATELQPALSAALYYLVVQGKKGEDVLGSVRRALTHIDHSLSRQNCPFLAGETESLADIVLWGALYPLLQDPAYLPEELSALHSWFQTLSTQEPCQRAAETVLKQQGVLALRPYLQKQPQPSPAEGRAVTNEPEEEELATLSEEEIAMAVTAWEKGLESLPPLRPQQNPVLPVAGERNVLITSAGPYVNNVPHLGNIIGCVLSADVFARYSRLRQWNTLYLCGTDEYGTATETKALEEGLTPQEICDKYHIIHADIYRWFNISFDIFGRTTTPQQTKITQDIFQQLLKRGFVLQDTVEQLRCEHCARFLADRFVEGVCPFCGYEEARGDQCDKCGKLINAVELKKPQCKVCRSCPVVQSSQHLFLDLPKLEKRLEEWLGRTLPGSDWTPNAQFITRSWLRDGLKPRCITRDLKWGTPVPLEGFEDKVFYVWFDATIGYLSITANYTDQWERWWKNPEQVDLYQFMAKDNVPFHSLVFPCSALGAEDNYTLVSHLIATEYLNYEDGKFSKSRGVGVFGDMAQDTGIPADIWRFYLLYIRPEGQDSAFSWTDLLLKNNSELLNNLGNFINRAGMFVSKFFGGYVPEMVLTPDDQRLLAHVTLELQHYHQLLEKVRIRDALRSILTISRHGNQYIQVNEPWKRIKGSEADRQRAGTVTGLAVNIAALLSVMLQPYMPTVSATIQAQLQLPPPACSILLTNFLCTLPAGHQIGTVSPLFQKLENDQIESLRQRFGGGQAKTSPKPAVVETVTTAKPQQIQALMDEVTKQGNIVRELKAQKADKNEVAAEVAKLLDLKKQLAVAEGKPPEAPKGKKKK
Test: ANL incorporation into nascent protein of iPSCs (BONCAT western blot, TAMRA confocal microscopy)
Type: cell-based
Conditions: 1.5 mM ANL, 14 hrs
Protocol: Validation by Western Blot: Wild-type (WT) and MethL272G iPSCs were cultured in 6-well plate with and without 1.5 mM ANL (Tocris 6585) for 14 hrs in DMEM/F12 Silac media without Methionine (AthenaES 0433) supplemented with TeSR™-E8™ 25× Supplement. (Note: Methionine-absent media is described as Metia below.) Cells were dissociated and collected using TrypLE Express (Gibco 12605028) for 3 min at 37° C., isolated, and lysed in Ripa buffer with Halt Protease Inhibitor Cocktail (ThermoFisher Scientific 78429) and Halt Phosphatase Inhibitor Cocktail (ThermoFisher Scientific 78426). 200 μg of protein was labeled for analysis using Click-iT Protein Analysis TAMRA alkyne Detection Kit (Invitrogen C33370) that tags the azide of ANL incorporated protein with a TAMRA-alkyne tag via the following reaction:
The resulting protein pellets were boiled in 120 μl of Loading Buffer and boiled for 15 minutes at 70° C., which were then loaded into a 4-15% Criterion TGX 12-well Gel (Bio-Rad 5671083) for electrophoresis, then transferred to Trans-Blot® Turbo™ Midi Nitrocellulose Membrane (Bio-Rad 1704159) for analysis. Protein was probed with TAMRA Monoclonal Antibody (5G5) (Invitrogen MA1-041) followed by anti-mouse secondary for imaging. […]

[N-]=[N+]=NCCCC[C@H](N)C(=O)O [ANL, L-azidonorleucine]
labeling of cellular protein (TAMRA confocal microscopy) (control ADRC76 versus MethL272G iPSCs, FIG. 2A): labeling of cellular protein only in mutated MethL272G iPSCs | BONCAT labeling of ANL-incorporated protein (western blot) (methionine-absent media, FIG. 1B): successful BONCAT labeling
